Test system: mouse macrophage RAW264.7 cells
Test: Western blotting of cytokine signalling proteins with or without LPS
Type: cell-based
Conditions: DHMBA 10 μM, 5 hours
Method: Cells (1×10^6 cells/10 ml of medium) were cultured in a DMEM culture medium for 3 days until they reached subconfluence. After that, cells were cultured for another 5 hours in the control group (1% ethanol; DHMBA 0 M) and in the DHMBA-treated group (10 μM) with or without of LPS (100 ng/ml). After the culture, cell lysates were obtained for Western blot assay using specific antibodies against COX-1, COX-2, MAPK, phospho-MAPK, NF-κB p65, STAT3, and β-actin, as shown in FIG. 3.
Band intensities are presented as fold increase over the controls, under the following conditions: no LPS (FIG. 8B), LPS (100 ng/ml) alone (FIG. 8C), and LPS (100 ng/ml) plus DHMBA (10 μM) (FIG. 8D). Data are presented as the mean±SD of values obtained from 4 dishes using different cell preparations. *: Significant difference (p<0.01) versus the control without LPS (FIG. 8C). *: Significant difference (p<0.01) versus the control with LPS but without DHMBA (FIG. 8D). Statistical analysis was performed using 1-way ANOVA with Tukey-Kramer post-test.
To measure the expression levels of Cox-1, Cox-2, NF-κB p65, and STAT3, which are involved in cytokine signaling, RAW264.7 cells (1×10^6 cells/10 ml of 100 mm dish) were cultured in a DMEM culture medium containing 10% FS, 1% P/S, and 1% fungizone for 3 days until they reached subconfluence, and then cultured for another 5 hours in the control group (1% ethanol; DHMBA 0 μM as final concentration) and in the DHMBA-treated group (10 μM) with or without LPS (100 ng/ml in the medium). After the culture, the cells attached to the dish were scraped off with a cell lysis buffer and collected for measurement as described in the “Western blotting” section.
RAW264.7 cells (1×10^6 cells/10 ml of 100 mm dish) were cultured for 3 days in 10% FBS, 1% P/S (1% ethanol), or in the DHMBA-treated group (10 μM). After the culture, the dishes were washed with cold PBS (10 ml) to remove floating and dead cells. The cell lysis buffer (Cell Signaling Technology, Inc., Danvers, MA, USA) supplemented with protease/protein phosphatase inhibitor (Roche Diagnostics, Indianapolis, IN, USA) was added to the cells to collect cell lysates of the adherent cells as described in the previous study. The cell lysates were centrifuged at 17,000×g, 4° C. for 10 min. Protein concentrations in the supernatants were measured using Bio-Rad Protein Assay Dye (Bio-Rad Laboratories, Inc., Hercules, CA, USA) with bovine serum albumin as a standard. The cell lysates were stored at −80° C. until use. The supernatant proteins (40 μg/lane) were separated by SDS-polyacrylamide gel electrophoresis (12% SDS-PAGE) and transferred to a PVDF membrane. The transferred membranes were immunoblotted with specific antibodies against various proteins, including Ras (cat. no. 3339, rabbit), Akt (cat. no. 9272, rabbit), mitogen-activated protein kinase (MAPK; cat. no. 4695, rabbit), phosphorylated MAPK (cat. no. 4370, rabbit), mechanistic target of rapamycin (mTOR; cat. no. 4517, mouse), Rb (cat. no. 9309, mouse), p21 (cat. no. 2947, rabbit), STAT3 (cat. no. 12640, rabbit), COX-1 (cat. no. 48415), COX-2 (cat. no. 4842), and β-actin (cat. no. 3700, mouse), all of which were purchased from Cell Signaling Technology, Inc. (Danvers, MA, USA). Specific antibodies for p53 (cat. no. sc-126, mouse) and NF-κB p65 (cat. no. sc-109, rabbit) were purchased from Santa Cruz Biotechnology Inc. (Santa Cruz, CA, USA). Additionally, rabbit anti-regucalcin antibody (cat. no. HPA029103, rabbit) was obtained from Sigma-Aldrich. Target proteins were incubated overnight at 4° C. with one of the above primary antibodies (1:1,000). After incubation, the membranes were further incubated with horseradish peroxidase-conjugated secondary antibodies (Santa Cruz Biotechnology Inc., cat. no. sc-2005 (mouse) or sc-2305 (rabbit); dilution 1:2000) for 60 min at room temperature, and protein bands were detected using chemiluminescence substrates (cat. no. 34577, Thermo Fisher Scientific Inc., Rockford, IL, USA) on X-ray films. […]

COc1c(O)cc(CO)cc1O [DHMBA, 3,5-dihydroxy-4-methoxybenzyl alcohol]
LPS-increased level of MAPK (LPS 100 ng/ml): suppressed
LPS-increased level of NF-κB p65 (LPS 100 ng/ml): suppressed
LPS-increased level of STAT3 (LPS 100 ng/ml): suppressed
LPS-increased level of phospho-MAPK (LPS 100 ng/ml): suppressed
level of COX-1 (without LPS): not altered
level of COX-2 (without LPS): not altered
level of MAPK (without LPS): not altered
level of NF-κB p65 (without LPS): not altered
level of STAT3 (without LPS): not altered
level of phospho-MAPK (without LPS): not altered
